US5041426A, “Immune system enhancing 3-β-d-ribofuranosylthiazolo[4,5-d]pyridimine nucleosides and nucleotides” (priority 1988, dated 1991)
“And” between values parts separate entries of the source, which are not always exact repeats. Equal values may be shown once.

Legend:
[1] = system: Influenza B Virus; assay: Antiviral activity against Influenza B virus infection in mice; format: in vivo, mouse; conditions: for Mean Survival Time: once a day at -2 h and days 2, 4, 6
Experimental: Compound 7 was tested therapeutically against Influenza B Virus Infection in Mice. In addition to a saline control Ribavirin, a known antiviral, was utilized for test purposes.
hours previrus inoculation.
^c p < .001 twotailed ttest.

[2] = system: Reticulum-cell Sarcoma M5076; assay: Mean life span of mice with metastatic reticulum-cell sarcoma; format: in vivo, mouse
Experimental: Effect of drug treatment on the mean life span of host animals implanted with metastatic reticulum-cell sarcoma M5076 was measured using the same test protocol as per example 54. The host animals were drug dosed for 20 days as per example 54, however, as opposed to example 54 they were monitored for survival.
^a Fragments of reticulumcell sarcoma M5076 (≈14 mg) were
implanted sc in the left flank of BDF1 female mice and ip bolus
injections of drug were initiated 24 hrs later. The drug was delivered on
the basis of 0.01 ml/g mouse weight. Control mice received a 0.09%
solution of NaCl delivered on the same basis. Six mice were used per
treatment group. Treatment give qd for days 1-20 and animals monitored
after treatment for survival.

[3] = system: murine B16 melanoma; assay: Artificially induced pulmonary metastatic foci of B16 melanoma in mice; format: in vivo, mouse; conditions: Group 2: 100 mg/kg i.p. 24 h before tumor injection
Experimental: Test drug, compound 7, was given to groups of test animals. The groups includes a first control group, a second group given drug 24 hours prior to intravenous tumor injection, a third group given drug both 24 hours prior to intravenously tumor injection and 72 hours post tumor injection and a fourth group given drug 72 hours post tumor injection.
^a 10 week old, female C57B1/6 mice in groups of 5 each were injected
intravenously with 5 × 10^5 of B16 melanoma tumor cells. The
mice in groups 2, 3 and 4 were treated by injection of 100 mg/kg of drug

[4] = system: YAC-1 cells; assay: In vitro potentiation of murine natural killer cell activity (mouse spleen cells, 51Cr release); format: cell-based
Experimental: After incubation the cytotoxicity of the treated and untreated cells was determined against YAC-1 cells.
^a Spleen cells from mice were treated with 0.05 mM concentration of
amino acids and 5 × 10^-5 M Mercaptoethanol. The effector cells
were then tested for their cytotoxic activity against YAC1 target cells i
4 hr ^51 Cr release assay.
^a Spleen cells from mice were incubated in the absence and presence
of various compounds. After incubation, cells were suspended in complete
medium and then their cytotoxic activity was determined against YAC1
target cells as described in the text

[5] = system: San Angelo Virus; format: in vivo, mouse; conditions: compound 7 5 mg/kg at -24 h, saline days 0-6; of mice that died
[6] = system: Encephalomyocarditis virus; assay: Single versus multiple treatments on Encephalomyocarditis virus infection in mice; format: in vivo, mouse; conditions: for Mean Survival Time: of mice that died
[7] = system: P8/5 tumor target cells; assay: Activation of macrophages following single injection in CBA/CaJ mice; format: in vivo; conditions: Mus musculus, Macrophage
Experimental: The activity of compound 7 with respect to its ability to activate macrophages was tested by injecting CBA/CaJ mice with a single dose of compound 7 (2 mg per mouse) and after 24 hours the cytotoxicity of the spleen cells (SC), non adherent SC and adherent SC was determined.
^a A group of four mice (CBA/CaJ) were injected with 2 mg/mouse of
compound -7 solution. Control group received saline. After 24 hours of
injection, spleens were harvested. Adherent and nonadherent cells were
separated by incubation of spleen cells on plastic plates for one hour.
Cell suspension of spleen cells, nonadherent cells (NC) and adherent cell
(AC) were prepared in complete medium. Cytotoxicity of SC, NC and AC was
then measured against P8/5 tumor t arget cells in 4 hrs and 20 hrs
chromium release assay.

[8] = system: Mouse Cytomegalovirus; assay: Antiviral activity against mouse cytomegalovirus infection in mice
[9] = system: YAC1 target cells; assay: Natural killer cell activity in old C57BL/6J mice (in vivo treatment, spleen cells); design: species or system mouse
Experimental: For this test compound 7 was injected at a dose of 1.67 mg per mouse and 3.34 mg per mouse and after a day the natural killer cell activity of the spleen cells was determined.
i.p. route. Spleens after treatment were removed, cells were isolated and […]

[10] = system: Herpes Simplex Virus Type 2; assay: Antiviral activity against Herpes simplex virus type 2 infection in mice; format: in vivo, mouse; conditions: for Mean Survival Time: at -48, -24, and -2 h
Experimental: In this test Compound 7 was tested against both Herpes Simplex Type 1 Virus and Herpes Simplex Type 2 Virus. […] In each of these tests a placebo was utilized for control purposes. The survival time reflects survival time of those animals which succumbed during the test. […]
^b A 2% sodium bicarbonate solution was used as the placebo and as
diluent for Compound -7.
^c Statistically significant (p < .05) difference between the
drugtreated and placebo control mice, determined by the twotailed ttest.

[11] = system: Banzi Virus; format: in vivo, mouse; conditions: compound 7 100 mg/kg at -24 h, saline days 0-6; of mice that died

## Nc1nc2c(sc(=O)n2[C@@H]2O[C@H](CO)[C@@H](O)[C@H]2O)c(=O)[nH]1 [Compound 7, 5-Amino-3-β-D-ribofuranosylthiazolo[4,5-d]pyrimidine-2,7(6H)-dione]
[1]; 50 mg/kg/day
  Mean Survival Time: 6.4 ± 1.5 days
[1]; 100 mg/kg/day
  Mean Survival Time: 6.6 ± 1.1 days
[1]; Table 12
  efficacy against influenza B (in words): efficacy between saline, having no antiviral activity against influenza, and Ribavirin
[1]; further test
  antiviral activity against influenza B virus, further test: little or no antiviral activity
[2]; 37 mg/kg ip qd days 1-20
  Increased Life Span: 7.0 % of Control
  Postinoculation Life Span: 32.33 ± 3.67 days
[2]; 62 mg/kg ip qd days 1-20
  Increased Life Span: 19.8 % of Control
[2]; 62 mg/kg ip qd days 1-20, p 0.01
  Postinoculation Life Span: 36.33 ± 0.82 days
[2]; 104 mg/kg ip qd days 1-20
  Increased Life Span: 20.3 % of Control
[2]; 104 mg/kg ip qd days 1-20, p < 0.03
  Postinoculation Life Span: 36.50 ± 4.55 days
[3]
  Mean No. Of Metastatic Foci in Lungs: 8
[4]; 0.05 mM, 20 to 44 h
  natural killer cell activity compared to Poly I:C: increased activity compared to Poly I:C
[4]; C57BL/6J spleen cells, treatment 0 h, compound 7 at 0.05 mM
  % Natural Killer Cell Cytotoxicity: 18%
[4]; C57BL/6J spleen cells, treatment 20 h, compound 7 at 0.05 mM
  % Natural Killer Cell Cytotoxicity: 35% and 25%
[4]; C57BL/6J spleen cells, treatment 44 h, compound 7 at 0.05 mM
  % Natural Killer Cell Cytotoxicity: 34% and 22%
[4]; CBA/CaJ spleen cells, treatment 0 h, compound 7 at 0.05 mM
  % Natural Killer Cell Cytotoxicity: 15% and 23%
[4]; CBA/CaJ spleen cells, treatment 20 h, compound 7 at 0.05 mM
  % Natural Killer Cell Cytotoxicity: 34% and 62%
[4]; CBA/CaJ spleen cells, treatment 44 h, compound 7 at 0.05 mM
  % Natural Killer Cell Cytotoxicity: 31% and 44%
[4]; Table 21, 0.05 mM
  % Natural Killer Cell Cytotoxicity: 34.5% and 25% and 28%
[5]
  Mean Survival Time: 9.6 ± 1.6 days
[6]; 200 mg/kg at -24 h, then 50 mg/kg/day day 0-6
  Mean Survival Time: 9.5 ± 2.1 days
[6]; 200 mg/kg at -24 h only
  Mean Survival Time: 6.0 ± 1.3 days
[6]; daily dose of 50 mg/kg after 200 mg/kg
  protection, daily 50 mg/kg versus single 200 mg/kg dose: protected to a greater degree
[7]; 4 h, adherent cells, 4 hrs assay
  cytotoxicity at 2 mg: 37%
[7]; 4 h, nonadherent spleen cells, 4 hrs assay
  cytotoxicity at 2 mg: 45%
[7]; 20 h, adherent cells, 20 hrs assay
  cytotoxicity at 2 mg: 69%
[7]; 20 h, nonadherent spleen cells, 20 hrs assay
  cytotoxicity at 2 mg: 70%
[8]; 50 mg/kg/day, once a day at -2 h and days 2, 4, 6 (therapeutic)
  Mean Survival Time: 6.3 ± 1.1 days
[8]; 50 mg/kg/day, single dose 24 h pre-virus (prophylactic)
  Mean Survival Time: 6.5 ± 0.8 days
[8]; 100 mg/kg/day, once a day at -2 h and days 2, 4, 6 (therapeutic)
  Mean Survival Time: 6.0 ± 0.8 days
[8]; 100 mg/kg/day, single dose 24 h pre-virus (prophylactic)
  Mean Survival Time: 7.0 ± 1.4 days
[8]; 200 mg per kg, prophylactic mode
  cure: 100%
[8]; 200 mg/kg/day, half-daily doses 24 and 16 h pre-virus (prophylactic)
  Mean Survival Time: > 21 days
[9]; 8 month old mice, 1.67 mg i.p., E:T 50:1
  % Natural Killer Cell Cytotoxicity: 14%
[9]; 8 month old mice, 1.67 mg i.p., E:T 100:1
  % Natural Killer Cell Cytotoxicity: 19%
[9]; 8 month old mice, 1.67 mg i.p., E:T 150:1
  % Natural Killer Cell Cytotoxicity: 23%
[9]; 8 month old mice, 3.34 mg i.p., E:T 50:1
  % Natural Killer Cell Cytotoxicity: 17%
[9]; 8 month old mice, 3.34 mg i.p., E:T 100:1
  % Natural Killer Cell Cytotoxicity: 28%
[9]; 8 month old mice, 3.34 mg i.p., E:T 150:1
  % Natural Killer Cell Cytotoxicity: 38%
[9]; 8 week old mice, 1.67 mg i.p., E:T 50:1
  % Natural Killer Cell Cytotoxicity: 15%
[9]; 8 week old mice, 1.67 mg i.p., E:T 100:1
  % Natural Killer Cell Cytotoxicity: 20%
[9]; 8 week old mice, 1.67 mg i.p., E:T 150:1
  % Natural Killer Cell Cytotoxicity: 24%
[9]; 8 week old mice, 3.34 mg i.p., E:T 50:1
  % Natural Killer Cell Cytotoxicity: 17%
[9]; 8 week old mice, 3.34 mg i.p., E:T 100:1
  % Natural Killer Cell Cytotoxicity: 27%
[9]; 8 week old mice, 3.34 mg i.p., E:T 150:1
  % Natural Killer Cell Cytotoxicity: 31%
[10]; 50 mg/kg/day
  Mean Survival Time: 11.8 ± 2.3 days
[10]; 100 mg/kg/day
  Mean Survival Time: 11.2 ± 1.5 days
[10]; 200 mg per kg in the mouse
  toxicity: partially toxic
[10]; 200 mg/kg/day
  Mean Survival Time: 7.2 ± 3.9 days
[10]; 200 mg/kg/day, days 1 and 2 post virus inoculation
  deaths from drug toxicity: Three mice died on days 1 and 2
[10]; 200 mg/kg/day, excluding three toxicity deaths
  survival time of the rest of the mice that died: 9.6 ± 0.8 days
[11]
  Mean Survival Time: 9.3 ± 1.0 days
